The source of these data is paper PMC11213860, “Competitive protein recruitment in artificial cells” (Communications Chemistry, 2024).

A word on the Kd: it is the free concentration of one partner at which half of the binding sites on the other are occupied at equilibrium, for simple one-to-one binding.

One test addresses T1, 14-3-3γ (Homo sapiens, UniProt P61981).
T1 construct: His-tagged full-length 14-3-3σ and 14-3-3γ were kindly provided by
T1 sequence (P61981 1-247): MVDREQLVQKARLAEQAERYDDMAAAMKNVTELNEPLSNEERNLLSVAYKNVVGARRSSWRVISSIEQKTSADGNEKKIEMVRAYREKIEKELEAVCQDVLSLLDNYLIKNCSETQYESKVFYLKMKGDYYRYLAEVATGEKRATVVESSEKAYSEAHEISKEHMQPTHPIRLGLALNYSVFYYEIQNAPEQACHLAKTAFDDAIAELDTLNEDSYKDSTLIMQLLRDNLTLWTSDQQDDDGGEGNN
Briefly: Fluorescence anisotropy assay, titration of 14-3-3γ to labeled peptide. It counts as binding. The following applies: ratio of KD values from fluorescence anisotropy.

A further test relates to T14-3-3. The experiment in a line: Fluorescence anisotropy assay, titration of T14-3-3 to labeled peptides. It counts as binding. Particulars: Supplementary Table 1; unphosphorylated peptide, cf. Supplementary Fig. 7. As for the experimental part: 14-3-3 was titrated in a 2-fold dilution series to 10 nM of fluorescently labeled peptide in coacervate buffer (20 mM HEPES, 100 mM KCl, pH 7.5) supplemented with 0.1% (v/v) of Tween 20 and 1 mg/mL of bovine serum albumin (BSA) to prevent aspecific hydrophobic interactions. Dilution series were prepared in low volume, non-binding polystyrene 384-well plates (Corning 4514 Black Round Bottom 384-well plates). Measurements were performed directly after plate preparation using a Tecan Spark plate reader at room temperature. The following settings were used: excitation 485 ± 20 nm; emission: 535 ± 25 nm; mirror: Dichroic 510; number of flashes: 30; integration time: 40 µs; settle time: 1 ms; gain: optimal; and Z-position: calculated from well. Wells containing only the labeled peptide were used to set as G-factor at 35 mAU. All data were analyzed using GraphPad Prism (version 10.0.3) and fitted using a four-parameter logistic model (4PL) to determine binding affinities (KD). All results are based on triplicates, with the mean and standard error determined by GraphPad.
On the technique in general: Polarisation of emitted light reports the rotation of a fluorescent probe.

A further test addresses BiExoS [change] peptide. The experiment in a line: fluorescence polarisation.

Regarding `CC(C)C[C@H](NC(=O)[C@H](CO)NC(=O)CNC(=O)[C@H](CCC(=O)O)NC(=O)[C@H](CO)NC(=O)[C@H](CO)NC(=O)[C@@H]1CCCN1C(=O)[C@H](CO)NC(=O)[C@H](CO)NC(=O)[C@@H](NC(=O)[C@H](CC(N)=O)NC(=O)[C@H](Cc1ccccc1)NC(=O)[C@@H](NC(=O)[C@H](Cc1ccccc1)NC(=O)[C@H](C)NC(=O)[C@H](Cc1c[nH]cn1)NC(=O)[C@@H]1CCCN1C(=O)[C@@H](NC(=O)[C@H](COP(=O)(O)O)NC(=O)[C@H](Cc1ccc(O)cc1)NC(=O)[C@H](CCCNC(=N)N)NC(=O)[C@H](Cc1c[nH]cn1)NC(=O)[C@H](CCC(N)=O)NC(=O)CCCCCNC(=S)Nc1ccc2c(c1)C(=O)OC21c2ccc(O)cc2Oc2cc(O)ccc21)[C@@H](C)O)[C@@H](C)O)[C@@H](C)O)C(=O)N[C@@H](CO)C(=O)N[C@@H](CCC(N)=O)C(=O)N[C@@H](CCCNC(=N)N)C(=O)N[C@@H](CCC(N)=O)C(=O)N[C@@H](CCCNC(=N)N)C(=O)N[C@@H](CO)C(=O)N[C@H](C(=O)N[C@@H](COP(=O)(O)O)C(=O)N[C@H](C(=O)N1CCC[C@H]1C(=O)N[C@@H](CC(N)=O)C(=O)N[C@H](C(=O)N[C@@H](Cc1c[nH]cn1)C(N)=O)C(C)C)[C@@H](C)O)[C@@H](C)O` [FITC-c-Raf pS], on 14-3-3γ, the “difference in bulk affinity of the peptide for the two isoforms (14-3-3σ vs 14-3-3γ)” value came out at 40 fold. For the molecule “FITC-Ahx-QHRYSTPHAFTFNTSSPSSEGSLSQRQRSTSTPNVH-Ac [c-Raf S233/S259, unphosphorylated FITC-labeled c-Raf S233/S259 peptide]”, the “Binding mode to 14-3-3” value with T14-3-3 was “No binding”. “His-tagged full-length 14-3-3γ (from UniProt P61981 1-247) (natural protein)” gave a Kd in the test with BiExoS [change] peptide of 0.059 µM. In other words, the double-digit nanomolar range.

B1: His-tagged full-length 14-3-3σ (natural protein)
chain: MERASLIQKAKLAEQAERYEDMAAFMKGAVEKGEELSCEERNLLSVAYKNVVGGQRAAWRVLSSIEQKSNEEGSEEKGPEVREYREKVETELQGVCDTVLGLLDSHLIKEAGDAESRVFYLKMKGDYYRYLAEVATGDDKKRIIDSARSAYQEAMDISKKEMPPTNPIRLGLALNFSVFHYEIANSPEEAISLAKTTFDEAMADLHTLSEDSYKDSTLIMQLLRDNLTLWTADNAGEEGGEAPQEPQS
modifications: in the coacervate experiments labelled with Cy5 or DyLight 405 (NHS ester, aspecific)
Consider B1, for which, in the test with BiExoS [change] peptide, the Kd was 23 µM.
